The values that follow come from article PMC8805605, “Discovery of Dimeric Arylsulfonamides as Potent ADAM8 Inhibitors” (ACS Medicinal Chemistry Letters, 2021).

One test concerns the target T1, MMP-9 (Homo sapiens, UniProt P14780).
T1 construct: purchased Calbiochem (Merck-Millipore)
Kind of test: MMP-9 fluorometric inhibition assay. The class given is biochemical. Particulars: mean of three independent experiments in duplicate, read-out: In vitro inhibitory activity IC50 on MMP-9. How it is done: The newly synthesized bivalent derivatives 1–3 were then tested in vitro on human recombinant ADAM8 in comparison with JG26 by a fluorometric assay. The inhibitory activity against a panel of MMPs and ADAM10/17 was determined as well to assess their selectivity profile. […]
VI. Biological Activity on Isolated Enzymes
MMP and ADAM10 inhibition assays.
Recombinant human MMP-14 catalytic domain was a kind gift of Prof. Gillian Murphy (Department of […]
Oncology, University of Cambridge, UK). Pro-MMP-1, pro-MMP-2, and pro-MMP-9, were purchased […]
from Calbiochem (Merck-Millipore). Pro-MMP-12 and ADAM10 were purchased from R&D Systems.
Proenzymes were activated immediately prior to use with p-aminophenylmercuric acetate (APMA 2 […]
mM for 1 h at 37°C for MMP-2 and MMP-1, 1 mM for 1 h at 37°C for MMP-9). Pro-MMP-12 was […]
auto activated by incubating in the fluorometric assay buffer (FAB: Tris 50 mM, pH = 7.5, NaCl 150 […]
mM, CaCl2 10 mM, Brij 35 0.05% and DMSO 1%) for 30 h at 37°C. For assay measurements, each […]
inhibitor stock solution (DMSO, 10 mM) was further diluted in FAB at seven different concentrations.
Activated enzyme (final concentration 0.56 nM for MMP-2, 1.3 nM for MMP-9, 1.0 nM for MMP- […]
14cd, 2.0 nM for MMP-1, 2.3 nM for MMP-12 and 20 nM for ADAM10) and inhibitor solutions were […]
incubated in the assay buffer for 3 h at 25 °C. ADAM10 was incubated for 1 h at 37°C in a different […]
buffer at pH 9 (Tris 25 mM, ZnCl2 25 µM, Brij-35 0.005 %). After the addition of 200 µM solution of […]
the fluorogenic substrate Mca-Lys-Pro-Leu-Gly-Leu-Dap(Dnp)-Ala-Arg-NH2 (Bachem) for all the […]
enzymes in DMSO (final concentration 2 µM for all enzymes, 10 µM for ADAM10), the hydrolysis […]
was monitored every 10 sec. for 15 min. recording the increase in fluorescence (λ ex = 325 nm, λ em = […]
400 nm) using a Molecular Devices SpectraMax Gemini XPS plate reader. The assays were performed […]
in triplicate in a total volume of 200 μL per well in 96-well microtitre plates (Corning, black, NBS).
Control wells lack inhibitor. The MMP inhibition activity was expressed in relative fluorescent units […]
(RFU). Percent of inhibition was calculated from control reactions without the inhibitor. IC50 was determined using the formula: v i/v o = 1/(1 + [I]/ IC50), where v i is the initial velocity of substrate cleavage in the presence of the inhibitor at concentration [I] and v o is the initial velocity in the absence of the inhibitor. Results were analyzed using SoftMax Pro software (version 5.4.3, Molecular Devices, Sunnyvale, CA) and Prism Software version 5.0 (GraphPad Software, Inc., La Jolla, CA, USA). […]

Another test has as its system MDA-MB-231 cells. Kind of test: Matrigel invasion assay. Particulars: MDA-MB-231 cells pretreated with inhibitors for 24 h; control 69.07 ± 5.26%. The format is cell-based. As for the experimental part: Figure 5 Effects of compounds 1–3 and JG26 on cancer cell invasion. MDA-MB-231 cells were pretreated with inhibitors for 24 h prior to the assay. Boxplot of invaded cells in %. Results are obtained from three independent experiments with counting of five randomly chosen viewing fields. One-way ANOVA was performed to determine statistical significance with * p < 0.05 and *** p < 0.001. […]
Thincerts of […] pore size, translucent (Greiner BioOne) were transferred into 24-well plates. Each insert was loaded with 75 µL Matrigel (BD Biosciences), 1:1 diluted with serum-free medium DMEM.
After 1 hour, thincerts were turned upside down and 25000 MDA-MB-231 cells, pretreated with vehicle (DMSO) or 20 µM inhibitors (JG26 and compounds 1-3 in DMSO) for 24 hours in DMEM/0.5 % FCS were seeded on the lower side and incubated for 3-4 hours so that cell can adhere to the membrane. To induce cell invasion, DMEM/20% FCS was applied to the upper chamber in order to […]
form a concentration gradient. After 18 hours, cells were fixed with 3.7 % paraformaldehyde and stained with 4’,6-Diamidin-2-phenylindol (DAPI) to detect cell nuclei. Quantification of cell invasion was performed using a confocal microscope by stacked imaging. Cell nuclei present in the upper and the lower chamber were counted in 5 randomly chosen viewing fields and the amount of invasion was calculated in percent as the ratio between invaded cells/non-invaded cells x 100. Experiments were repeated 3 times, counting 5 random viewing fields per well, respectively.
Protein extraction and Western Blot analysis
After 48 h, total protein extraction was performed by detaching the cells with a cell scraper. Cells were washed with PBS, resuspended in 50 μL RIPA (50 mM HEPES pH 7.4; 150 mM NaCl; 1% (v/v) NP-40; 0.5% (w/v) Natriumdeoxycholate; 0.1% (w/v) SDS; 10 mM Phenantrolin; 10 mM EDTA; PierceTM Protease Inhibitor Mini Tablets, EDTA-free, Thermo Scientific; PierceTM Phosphatase Inhibitor Mini Tablets, Thermo Scientific) and incubated for 30 min on ice. […]
2% (w/v) SDS; 10% (w/v) Glycerol; 5% (v/v) ß-Mercaptoethanol; 0.01% (w/v) Bromphenol-Blue) for 5 min. The proteins were separated by 10% SDS-PAGE and subsequently transferred on a nitrocellulose membrane (GE Healthcare). The membrane was then blocked with 5% (w/v) milk powder (MP) in TBST (50 mM Tris, pH 7.5; 150 mM NaCl; 0.1% (w/v) Tween-20) for 1 h and probed with the following primary antibodies: anti-beta Tubulin (NB600-936, Novus Biological, 1:2000), anti- […]
Cell Signaling, 1:2000) and anti-pAkt (4060, Cell Signaling, 1:2000) at 4°C overnight. After washing the 3x with TBST, the membrane was incubated with horseradish peroxidase-conjugated secondary antibodies for 1 h (abcam, 1:5000) followed by a repeated washing step. […]

T1 sequence (P14780 107-707 limits assumed, species assumed): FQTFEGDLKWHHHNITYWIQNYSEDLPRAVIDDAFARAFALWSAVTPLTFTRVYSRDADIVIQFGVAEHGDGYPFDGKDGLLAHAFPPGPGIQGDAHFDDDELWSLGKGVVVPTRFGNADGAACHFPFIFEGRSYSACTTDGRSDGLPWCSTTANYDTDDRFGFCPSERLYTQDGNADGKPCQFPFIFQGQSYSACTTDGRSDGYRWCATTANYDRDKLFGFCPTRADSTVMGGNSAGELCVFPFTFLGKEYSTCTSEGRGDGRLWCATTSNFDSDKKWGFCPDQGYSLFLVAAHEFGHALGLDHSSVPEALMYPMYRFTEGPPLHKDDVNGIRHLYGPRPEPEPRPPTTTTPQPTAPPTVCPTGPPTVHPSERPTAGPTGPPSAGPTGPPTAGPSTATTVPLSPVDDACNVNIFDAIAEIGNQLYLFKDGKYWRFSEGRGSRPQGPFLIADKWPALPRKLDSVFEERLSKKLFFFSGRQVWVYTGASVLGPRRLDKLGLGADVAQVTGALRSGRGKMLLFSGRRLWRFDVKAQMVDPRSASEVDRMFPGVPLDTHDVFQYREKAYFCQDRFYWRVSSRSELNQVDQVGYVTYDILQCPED

As for `O=C(NCCC[C@@H](NS(=O)(=O)c1ccc(OCc2cc(Br)cc(Br)c2)cc1)C(=O)NO)c1cccc(C(=O)NCCC[C@@H](NS(=O)(=O)c2ccc(OCc3cc(Br)cc(Br)c3)cc2)C(=O)NO)c1` [Compound 2], the IC50 (as a rule, the concentration needed to halve the response being measured) at MMP-9 stood at 8.8 µM. The Invaded cells in the test on MDA-MB-231 cells worked out at 50.8 ± 11.4%.
The matching figures for `O=C(NCCC[C@@H](NS(=O)(=O)c1ccc(OCc2cc(Br)cc(Br)c2)cc1)C(=O)NO)NCCC[C@@H](NS(=O)(=O)c1ccc(OCc2cc(Br)cc(Br)c2)cc1)C(=O)NO` [Compound 3]: 13.5 µM and 52.9 ± 9.14%.
The matching figures for `NC(=O)NCCC[C@@H](NS(=O)(=O)c1ccc(OCc2cc(Br)cc(Br)c2)cc1)C(=O)NO` [JG26, reference compound]: 1.63 µM and 59.87 ± 12.27%.
Consider `O=C(CCCNC(=O)c1cccc(C(=O)NCCCC(=O)NCCC[C@@H](NS(=O)(=O)c2ccc(OCc3cc(Br)cc(Br)c3)cc2)C(=O)NO)c1)NCCC[C@@H](NS(=O)(=O)c1ccc(OCc2cc(Br)cc(Br)c2)cc1)C(=O)NO` [Compound 1], for which the IC50 at MMP-9 came to 3.32 µM. The Invaded cells in the test with MDA-MB-231 cells was found to be 57.25 ± 7.24%.
